We go through two compounds from patent US9249134B2, “Process for preparation of amorphous form of dasatinib” (CADILA HEALTHCARE LIMITED, priority 2013, dated 2016).

For data set [1] the following is noted: in water or organic solvents like methanol, ethanol, propanol, isopropanol, butanol; even in the condition of heating; cited from earlier work.
Data set [2] can be described thus: Solid-state stability of prior-art amorphous dasatinib under stability conditions. Format: physicochemical. The following applies: amorphous dasatinib having higher residual solvents (prior art process), subjected to stability conditions. The method, then: Therefore, the prior art process provides amorphous dasatinib containing higher amount of residual solvent which is not suitable for pharmaceutical developments.
As used herein, the term “stable dasatinib” includes either: amorphous dasatinib that after exposure to a relative humidity of 75% at 40° C. or 60% at 25° C., for a period of at least three months contains less than about 0.5% (wt/wt) total impurities and doesn't change to crystalline form.

As for `Cc1nc(Nc2ncc(C(=O)Nc3c(C)cccc3Cl)s2)cc(N2CCN(CCO)CC2)n1` [Dasatinib, N-(2-chloro-6-methylphenyl)-2-[[6-[4-(2-hydroxyethyl)-1-piperazinyl]-2-methyl-4-pyrimidinyl]amino]-5-thiazolecarboxamide], in data set [1], the solubility entry is “practically insoluble”.
For the compound `Cc1nc(Nc2ncc(C(=O)Nc3c(C)cccc3Cl)s2)cc(N2CCN(CCO)CC2)n1` [amorphous dasatinib], the “solid form stability (amorphous to crystalline conversion)” value in data set [2] was “converts to crystalline form”.
